Assay results reported in patent publication US10952390B2, “Catnip cultivar ‘CR3’” (Rutgers, The State University of New Jersey, priority 2016, dated 2021).

Experiments:
Type in all cases: in vivo
Anopholes gambiae = assay: one-choice mosquito landing rate inhibition assay
Procedure: (§1) The clonal population serving as source material for the essential oil was the ‘CR3’ cultivar. The hydro-distilled essential oil from this population was used as the source for the crude essential oil treatment and was partitioned for subsequent fractionation and nepetalactone purification. The clones were transplanted to the field. Immediately before the plants were in full flower, they were harvested and dried at 37° C. with an onsite Powell walk-in forced air heat dryer kept under low heat conditions. Once the plants had lost all moisture, under the temperature and pressure conditions, the leaves and flowers were separated from the stems for hydro-distillation. Essential oils were extracted by hydro-distilling 60 g of dried N. cataria leaves and flowers. They were distilled in a 2 L round bottom flask for 3 hours in 1 L of water and the essential oil was collected in a Clevenger-type trap. The essential oils were then prepared and analyzed by GC/MS. The CR3 essential oil contained about 29% Z, E-nepetalactone and about 59% E, Z-nepetalactone (% of the total essential oil).
(§2) Repellency was determined by a one-choice landing assay that uses the amount of mosquito landings to calculate the overall effectiveness of the candidate repellent. […] Time lapse photography recorded one image every five seconds. […]

Aedes aegypti = assay: one-choice mosquito landing rate inhibition assay
Procedure: as §1, with “oil). […]” for “oil).”
as §2

Dermacentor variabilis = assay: one-choice tick filter paper repellency assay (petri dish arena); settings: D. variabilis, 15 minutes, three replicates
Procedure: (§3) An arena was constructed out of petri dishes to establish a dose response curve of a repellent ('CR3′ essential oil or DEET) filter paper by monitoring the total amount of tick positions over 15 minutes (1 image every 15 sec) and calculating percent repellency. ‘CR3’ oils were extracted with acetone as described in Example 3. In a one-choice assay, the repellent was applied to half of the filter paper and placed into the petri dish where the ticks are placed, the petri dish cover applied, and the number of ticks counted applied to the repellent zone. In the two-choice repellency test (see FIG. 6), DEET and a repellent (‘CR3’ essential oil) were applied to different sides of the filter paper and the ticks are counted in reference to the test repellent, not DEET. Total Tick positions=(# ticks in petri dish)×(60 images) Percent repellency=[(# of ticks in the repellent zone)/(Total Tick positions)]*100 Three replicates were performed for each treatment. Complete repellency was defined as repelling greater than 95% of the ticks.

Ixodes scapularis = assay: as above; settings: I. scapularis, 15 minutes, three replicates
Procedure: as §3

[1] = 0.01% of the treatment applied to the filter paper

Compound: CCN(CC)C(=O)c1cccc(C)c1 [DEET]
- reduction of A. gambiae landing (Anopholes gambiae; [1]): about 35%
- decrease of mosquito landings (repellency) (Anopholes gambiae; A. gambiae, treatment at 1% on filter paper): > 95%
- reduction of A. aegypti landing (Aedes aegypti; [1]): about 32%
- decrease of mosquito landings (repellency) (Aedes aegypti; A. aegypti, treatment at 1% on filter paper): > 95%
- percent repellency (Dermacentor variabilis; applied at 0.1%): 86.06±10.2
- percent repellency (Dermacentor variabilis; applied at 1%): 99.31±1.00
- percent repellency (Ixodes scapularis; applied at 0.1%): 59.16±8.94
- percent repellency (Ixodes scapularis; applied at 1%): 99.79±0.36
